Experimental data from patent US4663326A, “Pyrazolo[4,3-d]pyrimidine-5,7-(4H,6H)dione or -5-thione-7-one analogs” (Warner-Lambert Company, priority 1985, dated 1987).
Values joined by “and” are separate entries in the source; they are usually repeats but may differ in a detail not shown here. Equal values may be shown once.

Key:
[1] = target: T1, adenosine receptors (designated A1) (Rattus norvegicus, UniProt P25099); experiment: Adenosine receptor binding - A1 receptor affinity (RBA1), [3H]-CHA displacement, rat whole brain minus cerebellum and brainstem membranes; design: species or system rat (male Long Evans); details: 1.0 nM [3H]-CHA, 25° C., pH 7.7; repeat tests (Test 1-4) one line each; read-out: RBA-1 (IC50, adenosine A1 affinity)
T1 construct: Whole brain minus cerebellum and brainstem from male Long Evans rats (150-200 g); from tissue; host or cells: whole brain minus cerebellum and brainstem, male Long Evans rats, membranes
T1 sequence (P25099 1-326): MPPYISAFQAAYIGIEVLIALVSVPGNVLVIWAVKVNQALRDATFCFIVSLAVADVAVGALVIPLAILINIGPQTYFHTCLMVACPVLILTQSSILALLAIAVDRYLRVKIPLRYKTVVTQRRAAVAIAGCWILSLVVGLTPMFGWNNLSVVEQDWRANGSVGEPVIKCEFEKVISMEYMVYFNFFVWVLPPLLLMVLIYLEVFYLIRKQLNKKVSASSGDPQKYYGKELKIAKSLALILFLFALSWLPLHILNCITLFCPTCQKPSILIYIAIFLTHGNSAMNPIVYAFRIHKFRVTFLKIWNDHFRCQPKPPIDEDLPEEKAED
Method: ADENOSINE RECEPTOR BINDING-A1 RECEPTOR AFFINITY (RBA1)
Whole brain minus cerebellum and brainstem from male Long Evans rats (150-200 g) was homogenized in 30 volumes of ice-cold 0.05M Tris-HCl buffer pH 7.7 using a Brinkman Polytron PT-10, (setting number 6 for 20 seconds) and centrifuged for ten minutes at 20,000×g (Sorvall RC-2), 4° C. The supernatant was discarded, and the pellet was resuspended and centrifuged as before. The pellet was resuspended in 20 ml Tris-HCl buffer containing two International Units/ml of adenosine deaminase (Sigma type III from calf intestinal mucosa), incubated at 37° C. for 30 minutes, then subsequently at 0° C. for ten minutes. The homogenate was again centrifuged, and the final pellet was resuspended in ice-cold 0.05M Tris-HCl buffer pH 7.7 to a concentration of 20 mg/ml original wet tissue weight and used immediately.
Tissue homogenate (10 mg/ml) was incubated in 0.05M Tris-HCl buffer pH 7.7 containing 1.0 nM [^3 H]-N^6 -cyclohexyladenosine (^3 H]-CHA) with or without test agents in triplicate for one hour at 25° C. Incubation volume was 2 ml. Unbound [^3 H]-CHA was separated by rapid filtration under reduced pressure through Whatman glass fiber (GF/B) filters. The filters were rinsed three times with 5 ml of ice cold 0.05M Tris-HCl buffer pH 7.7. The radio-labeled ligand retained on the filter was measured by liquid scintillation spectrophotometry after shaking the filters for one hour or longer on a mechanical shaker in 10 ml of Beckman Ready-Solv HP scintillation cocktail.
Nonspecific binding was defined as the binding which occurred in the presence of 1 mM theophylline. The concentration of test agent which inhibited 50% of the specific binding (IC50) was determined by nonlinear computer curve fit. The Scatchard plot was calculated by linear regression of the line obtained by plotting the amount of radioligand bound ([…]) versus [bound radioligand/free radioligand].Since the amount of radioligand bound was a small fraction of the total amount added, free radioligand was defined as the concentration (nM) of radioligand added to the incubation mixture. The Hill coefficient was calculated by linear regression of the line obtained by plotting the log of the bound radioligand vs the log of the [bound radioligand/(Bmax -bound radioligand)]. The maximal number of binding sites (Bmax) was calculated from the Scatchard plot.

Type 3 Phosphodiesterase = experiment: PDE inhibition, Type 3 phosphodiesterase, cardiac muscle; type: biochemical; details: 1 × 10^-4 M
Method: (§1) Phosphodiesterase activity was measured as described previously (Weishaar, P. E., Quade, M., Boyd, D., Schenden, J., Mark, S. S., Kaplan, H. R., Drug Devel. Res., 3:517-534, 1983), in a reaction medium containing 40 mM Tris-HCl (pH 8.0), 5 mM MgCl and 4 mM 2-mercaptoethanol. Unless otherwise noted, the concentration of substrate (^3 H-cyclic AMP or ^3 H-cyclic GMP) was 1.0 μM. All agents examined were dissolved in dimethyl sulfoxide (DMSO). Final concentration of the reaction medium was either 2.5% (cardiac and platelet studies) or 1.25% (smooth muscle studies). This concentration of DMSO produced an approximately 10% inhibition of enzyme activity. […] Three to four such concentration-response curves were generated for each agent, generally using different enzyme preparations for each concentration-response.

Type 1 Phosphodiesterase = experiment: PDE inhibition, Type 1 phosphodiesterase, cardiac muscle; type: biochemical; details: 1 × 10^-4 M
Method: as §1

histamine = experiment: Bronchodilator test (BCA), histamine spasmogen, guinea pigs; type: in vivo, Hartley Guinea Pigs; design: key: Active; details: 50 mg/kg
Description: The compounds of this invention may be determined to have antiallergy activity by a standard laboratory means employing the bronchodilator test (BCA) readily accepted as a standard for antiallergy activity, which is described in Siegmund, H. O., et al (J. Pharmacol. and Exptl., 90:254, 1949 and Herxheimer, H., J. Physiol., 117: 252-255, 1952). Thus, antiallergy activity was found for compounds of this invention by this BCA test using Hartley Guinea Pigs by the procedures as described below.
Naive (BCA) pigs are exposed to spasmogen for ten minutes by means of a De Vilbiss number 40 nebulizer positioned at the back of a closed, six unit plexiglas chamger (19×12.5×9"). Air flow is adjusted to give a pressure of 10 lbs/in; six animals per treatment are averaged, and the mean value for compound treated animals is compared to that for animals treated with vehicle. […]
The spasmogen may be acetylcholine chloride (0.3%), histamine (0.1%), methacholine chloride (Mecholyl) (0.1%) or serotonin creatinine sulfate. Each nebulizer dispenses 0.2 cc/minute.

Type 2 Phosphodiesterase = target: T2, Type 2 Phosphodiesterase (Cavia porcellus, UniProt A0A286XUV5); experiment: PDE inhibition, Type 2 phosphodiesterase, cardiac muscle; type: biochemical; design: inhibition: dose or concentration left out as unconfirmed; details: for inhibition at 100 µM: 1 × 10^-4 M, read-out: % Inhibition of 3H-cGMP Hydrolysis, Type 2 Phosphodiesterase; for inhibition: read-out: % Inhibition of 3H-cAMP Hydrolysis, Type 2 Phosphodiesterase
T2 construct: from tissue
T2 sequence (A0A286XUV5 22-936): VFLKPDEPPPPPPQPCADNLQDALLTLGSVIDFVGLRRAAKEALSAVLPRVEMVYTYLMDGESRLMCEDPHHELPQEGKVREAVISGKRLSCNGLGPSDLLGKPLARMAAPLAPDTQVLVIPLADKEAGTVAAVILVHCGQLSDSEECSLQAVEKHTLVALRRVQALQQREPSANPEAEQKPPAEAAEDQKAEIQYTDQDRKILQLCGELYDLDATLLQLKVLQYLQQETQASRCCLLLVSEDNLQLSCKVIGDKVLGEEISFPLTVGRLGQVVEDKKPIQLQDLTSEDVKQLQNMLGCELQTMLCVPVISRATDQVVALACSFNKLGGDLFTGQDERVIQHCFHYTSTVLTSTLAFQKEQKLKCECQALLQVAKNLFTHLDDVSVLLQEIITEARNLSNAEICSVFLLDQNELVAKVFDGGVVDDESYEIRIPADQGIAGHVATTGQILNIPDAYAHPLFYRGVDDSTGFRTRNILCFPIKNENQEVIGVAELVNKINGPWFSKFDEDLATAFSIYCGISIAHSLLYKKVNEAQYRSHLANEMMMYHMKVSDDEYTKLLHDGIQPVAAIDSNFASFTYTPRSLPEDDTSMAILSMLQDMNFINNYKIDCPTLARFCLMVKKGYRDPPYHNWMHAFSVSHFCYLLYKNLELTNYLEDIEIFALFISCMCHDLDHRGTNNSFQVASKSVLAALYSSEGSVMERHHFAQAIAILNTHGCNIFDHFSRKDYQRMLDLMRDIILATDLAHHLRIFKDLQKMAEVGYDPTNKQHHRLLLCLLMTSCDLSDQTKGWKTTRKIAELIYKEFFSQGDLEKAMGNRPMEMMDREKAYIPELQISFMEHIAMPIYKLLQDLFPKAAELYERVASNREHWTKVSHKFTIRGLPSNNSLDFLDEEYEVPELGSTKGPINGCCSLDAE
Method: as §1

SMILES	IC50 [1]	% Inhibition of 3H-cAMP Hydrolysis, Type 3 Phosphodiesterase (Type 3 Phosphodiesterase)	% Inhibition of 3H-cAMP Hydrolysis, Type 1 Phosphodiesterase (Type 1 Phosphodiesterase)	% Inhibition of 3H-cGMP Hydrolysis, Type 1 Phosphodiesterase (Type 1 Phosphodiesterase)	BCA Results, Ratings (histamine)	inhibition at 100 µM (Type 2 Phosphodiesterase) [%]	inhibition (Type 2 Phosphodiesterase) [%]
CCCn1c(=O)[nH]c2c(C)nn(CC)c2c1=O [Example 5, 1H-1-Ethyl-3-methyl-6-propyl-pyrazolo[4,3-d]pyrimidine-5,7-[4H,6H]dione]	458 nM and 992 nM and 378 nM and 401 nM	B (36-55% inhibition at 1 × 10^-5 M)	A (56-100% inhibition at 1 × 10^-5 M)	A (56-100% inhibition at 1 × 10^-5 M)	A	56 to 100	56 to 100
CCn1nc(C)c2[nH]c(=O)n(C)c(=O)c21 [Example 6, 1-Ethyl-3,6-dimethyl-1H-pyrazolo-[4,3-d]pyrimidine-5,7-[4H,6H]dione]	2530 nM	A (56-100% inhibition at 1 × 10^-5 M)	A (56-100% inhibition at 1 × 10^-5 M)	A (56-100% inhibition at 1 × 10^-5 M)	A	56 to 100	36 to 55
CCn1c(=O)[nH]c2c(C)nn(CC)c2c1=O [Example 4, 1-Ethyl-3-methyl-6ethyl-1H-pyrazolo[4,3-d]pyrimidine-5,7-[4H,6H]dione]	1040 nM and 1520 nM	A (56-100% inhibition at 1 × 10^-5 M)	A (56-100% inhibition at 1 × 10^-5 M)	A (56-100% inhibition at 1 × 10^-5 M)	A	56 to 100	56 to 100
Cc1nn(C)c2c(=O)n(C)c(=O)n(C)c12 [Example 7, 1,3,4,6-tetramethyl-1H-pyrazolo[4,3-d]pyrimidine-5,7-[4H,6H]dione]	–	C (21-35% inhibition at 1 × 10^-5 M)	C (21-35% inhibition at 1 × 10^-5 M)	N (0-20% inhibition at 1 × 10^-5 M)	A	36 to 55	36 to 55
CCCn1c(=O)c2c(c(C)nn2C)n(CCC)c1=O [Example 9, 1,3-dimethyl-4,6-dipropyl-1H-pyra-3-zolo[4,3-d]pyrimidine-5,7-[4H,6H]dione]	–	A (56-100% inhibition at 1 × 10^-5 M)	A (56-100% inhibition at 1 × 10^-5 M)	A (56-100% inhibition at 1 × 10^-5 M)	–	56 to 100	56 to 100
CCn1c(=O)c2c(c(C)nn2C)n(CC)c1=O [Example 8, 4,6-Diethyl-1,3-dimethyl-1H-pyrazolo[4,3-d]pyrimidine-5,7-[4H,6H]dione]	–	A (56-100% inhibition at 1 × 10^-5 M)	B (36-55% inhibition at 1 × 10^-5 M)	B (36-55% inhibition at 1 × 10^-5 M)	A	56 to 100	56 to 100
CCn1nc(C)c2[nH]c(=O)[nH]c(=O)c21 [Example 3, 1-Ethyl-3-methyl-1H-pyrazolo[4,3-d]pyrimidine-5,7(4H,6H)dione]	5880 nM	A (56-100% inhibition at 1 × 10^-5 M)	B (36-55% inhibition at 1 × 10^-5 M)	B (36-55% inhibition at 1 × 10^-5 M)	A	36 to 55	36 to 55
